{
  "source": "patent US5892029A",
  "about": "“3-hydroxy-2(1H)-pyridinone chelating agents” (priority 1997, dated 1999)",
  "key": {"[1]": {"experiment": "Fe(III) complex formation constants and pM", "type": "binding", "settings": "pH 7.4; chelator 10 and metal ion 1 μM", "excerpt": "The new HOPO monomers display high affinity for ferric ions. For example, 1-methyl-4(1-propylcarbamoyl)-3-hydroxy-2(1H)-pyridinone (Formula 9C, backbone=n-propyl, R'=H, R1 =methyl) has overall complex binding constants on the order of 10^28.7 M-3 for Fe(III). However, because of the 3:1 stoichiometry of the bidentate monomer/Fe complex, its stability is strongly dependent on its concentration (by the 3rd power). Generally, the pM concept was used to define the concentration of unchelated metal ion at physiological pH (7.4), and at chelator and metal ion concentrations (10 and 1 μM, respectively) which are those expected in the plasma of a chelator-treated patient. […] Since the multidentate 3,2-HOPO ligands have higher pM values than their bidentate analogs, they have stronger scavenging power for iron and actinides in vivo. For example, the bidentate compound 1-methyl-4(1-propylcarbamoyl)-3-hydroxy-2(1H)-pyridinone has a pM of 19.26 for Fe(III), while the hexadentate compound TREN-Me-3,2-HOPO (Formula 12, m=1) has a pM of 26.69 for Fe(III)."}, "[2]": {"experiment": "Chemical and physical properties (solubility, pKa, pH, hygroscopicity)", "type": "physicochemical"}, "[3]": {"experiment": "Promoting excretion of 241Am(III) in mice by injected ligands (Table 5)", "type": "in vivo", "excerpt": "(§1) Animal studies were completed using methods detailed in Radiation Protection Dosimetry, 1994, 53, 305: P. W. Durbin et al., \"In Vivo Chelation of Am(III), Pu(IV), Np(V) and U(VI) in Mice by TREN-(Me-3,2-HOPO)\"; Radiation Protection Dosimetry, 1989, 17, 351: P. W. Durbin et al., \"Removal of ^238 Pu(IV) from Mice by Polycatechoylate, -Hydroxamate or -Hydroxypyridinonate Ligands\"; Radiation Research, 1984, 99, 85: P. W. Durbin et al., \"Specific Sequestering Agents for the Actinides . . . \"; Radiation Research, 1984, 99, 106: P. W. Durbin et al., \"Removal of Pu and Am from Beagles and Mice . . . \"; Radiation Research, 1980, 81, 170: R. D. Lloyd et al., and P. W. Durbin et al., \"Specific Sequestering Agents for the Actinides . . . \". The foregoing articles are hereby incorporated by reference.\nRadionuclides used in the animal studies came from a variety of sources. The ^238 Pu(IV) citrate and ^241 Am(III) citrate solutions were prepared for animal injection by 8- to 10-fold dilution with 0.14M NaC1 (pH 4) of concentrated stock solutions (0.08M sodium citrate buffer) that had been held in frozen storage at Lawrence Berkeley Laboratory (hereinafter LBL) for several years. [The ^238 Pu(IV) was originally obtained from D. R. Atherton at the University of Utah Radiobiology Laboratory, Salt Lake City. The ^241 Am(III) solution had been obtained many years earlier from the LBL Actinide Chemistry group.]\n(§2) One of the novel chelating agents of the present invention, TREN-Me-3,2-HOPO, was also tested for effectiveness in promoting excretion of ^241 AM(III), ^237 Np(V), and ^232 U(VI) by injection into mice, as follows: Mice, in groups of five, each received an intravenous injection of (a) 1100 Bq of ^241 Am(III) in 0.2 mL of citrate buffer, (b) 150 Bq of ^232 UO2 Cl2 plus 3.6 mg of ^235 UO2 Cl2 in 0.2 mL of saline, or (c) 200 Bq of ^237 NpO2 Cl ([…] of ^237 NPO2 Cl) in 0.2 mL of saline. Three to five minutes later, 30 μmol/kg of TREN-Me-3,2-HOPO was injected intraperitoneally in 0.5 mL of saline. The mice were killed 24 hours after the actinide injection, frozen, and dissected after partial thawing. The skeleton, soft tissues, and separated excreta were radioanalyzed by counting the ^241 Am gamma rays, or the alpha particles emitted by ^237 Np or ^232 U (and its ingrowing daughters). Removal of those actinides from mice by injected TREN-Me-3,2-HOPO is summarized in Table 5, which also includes data for mice similarly treated with CaNa3 -DTPA and for actinide-injected controls. […] The structure of Am(III)-TREN-Me-3,2-HOPO is considered to resemble that of the Gd(III) complexes (see Example 20). Complexation of the fraction of Np(V) that is reduced in vivo to Np(IV) is considered to resemble that of Pu(IV). Complexation of U(VI) is considered to take place through binding to UO2^2+.\n(§3) ^a Ligands (30 μmol/kg) i.p. at 3 to 5 min after actinide i.v.;"}, "[4]": {"experiment": "Promoting excretion of 238Pu(IV) in mice by orally administered ligands (Table 4)", "type": "in vivo", "settings": "30 μmol/kg by gavage", "excerpt": "as §1\nRadionuclides used in the animal studies came from a variety of sources. […]\nThe novel chelating agents of the present invention were tested for their effectiveness in promoting excretion of ^238 Pu(IV) by oral administration to mice as follows. […] The ^238 Pu(IV) in skeleton, soft tissues, and separated excreta was determined by counting the ^234 U L x-rays. […]"}, "[5]": {"experiment": "Promoting excretion of 237Np(V) in mice by injected ligands (Table 5)", "type": "in vivo", "excerpt": "as §1\nThe ^237 Np(V) was obtained from J. Bucher of the LBL Actinide Chemistry group as NpO2 Cl in 0.1M HCl. It was diluted to the desired radioactivity concentration in 0.14M NaCl and the pH was adjusted to about 4.5 with NaOH just before use.\nas §2, §3"}, "[6]": {"type": "in vivo, mice", "settings": "for body weight / plasma urea N: mean ± SD", "description": "The test of acute toxicity of these novel ligands was carried out as follows. […] The ligand was dissolved in 0.5 to 1.0 ml of saline at pH 7 to 8. After a period of observation, the mice were killed, selected tissues were removed and fixed for histopathological examination,and unusual findings at autopsy were recorded."}, "[7]": {"experiment": "Promoting excretion of U(VI) in mice by injected ligands (Table 5)", "type": "in vivo", "excerpt": "as §1\nThe ^232 U was obtained from the Isotope Products Laboratory, Burbank, Calif., and ^234,235 U was obtained as U metal from long-held LBL storage. The two U sources were combined and dissolved in 6N HNO3, dried, and redissolved in 0.1N HCl. The daughter radioactivities were removed by elution from a Dowex-50X4 column (22 cm length, 0.7 cm diameter, 1.5 mL min^-1 flow rate) with 3.2N HCl. The U fractions (previously identified by a trial run with ^234,235 U alone) were combined, dried, and redissolved in 0.14M NaCl at pH 5.5.\nas §2, §3"}, "[8]": {"settings": "30 μmol/kg i.p. at 3 to 5 min after actinide i.v."}, "[9]": {"settings": "30 μmol/kg i.p. at 3 to 5 min after actinide i.v., pooled"}, "[10]": {"settings": "protocol I: 100 μmol/kg × 10 daily i.p., 11 d"}, "[11]": {"settings": "protocol I: 100 μmol/kg × 10 daily i.p., 21 d"}, "[12]": {"settings": "protocol II: 500 μmol/kg × 2 in 8 h i.p., 8 d"}},
  "note": "Entries after “also recorded” stand apart in the source; their conditions may differ. Like-named read-outs stand apart in the source and are kept apart here.",
  "data": [
    {"smiles": "CCCNC(=O)c1ccn(C)c(=O)c1O", "note": "[3-hydroxy-1-methyl-4(1-propylcarbamoyl)-2(1H)-pyridinone]", "values": [
      {"measurement": "pM for Fe(III)", "setting": "[1]", "result": 19.26},
      {"measurement": "solubility (in words)", "setting": "[2]", "result": "very soluble in water as well as organic solvents"}
    ]},
    {"smiles": "Cn1ccc(C(=O)NCCN(CCNC(=O)c2ccn(C)c(=O)c2O)CCNC(=O)c2ccn(C)c(=O)c2O)c(O)c1=O", "note": "[TREN-Me-3,2-HOPO]", "values": [
      {"measurement": "reduction of Am content (in words)", "setting": "[3]; 30 μmol/kg i.p.", "result": "reduced the body content of all three actinides to a significantly greater degree than CaNa3 -DTPA; also recorded: the Am content of all tissues was greatly reduced"},
      {"measurement": "Am(III) in liver at 24 h", "setting": "[3]; [8]", "result": "1.0 ± 0.6% of injected actinide"},
      {"measurement": "Am(III) in skeleton at 24 h", "setting": "[3]; [8]", "result": "8.1 ± 6% of injected actinide"},
      {"measurement": "Am(III) in soft tissue at 24 h", "setting": "[3]; [8]", "result": "1.6 ± 0.6% of injected actinide"},
      {"measurement": "Am(III) in whole body at 24 h", "setting": "[3]; [8]", "result": "11 ± 1.4% of injected actinide"},
      {"measurement": "Am(III) excreta: feces and GI contents", "setting": "[3]; [9]", "result": "8% of injected actinide"},
      {"measurement": "Am(III) excreta: urine 0-24 h", "setting": "[3]; [9]", "result": "51% of injected actinide"},
      {"measurement": "Am(III) in kidneys at 24 h", "setting": "[3]; [9]", "result": "0.2% of injected actinide"},
      {"measurement": "pM for Fe(III)", "setting": "[1]", "result": 26.69},
      {"measurement": "effectiveness of Pu removal, oral (in words)", "setting": "[4]", "result": "the most effective both (by oral and injection) cases"},
      {"measurement": "reduction of Np content (in words)", "setting": "[5]; 30 μmol/kg i.p.", "result": "reduced the body content of all three actinides to a significantly greater degree than CaNa3 -DTPA; also recorded: the Np content of the soft tissues was significantly reduced"},
      {"measurement": "Np(V) in liver at 24 h", "setting": "[5]; [8]", "result": "3.8 ± 5.7% of injected actinide"},
      {"measurement": "Np(V) in skeleton at 24 h", "setting": "[5]; [8]", "result": "34 ± 4.5% of injected actinide"},
      {"measurement": "Np(V) in soft tissue at 24 h", "setting": "[5]; [8]", "result": "3.1 ± 1.1% of injected actinide"},
      {"measurement": "Np(V) in whole body at 24 h", "setting": "[5]; [8]", "result": "42 ± 11% of injected actinide"},
      {"measurement": "Np(V) excreta: feces and GI contents", "setting": "[5]; [9]", "result": "17% of injected actinide"},
      {"measurement": "Np(V) excreta: urine 0-24 h", "setting": "[5]; [9]", "result": "40% of injected actinide"},
      {"measurement": "Np(V) in kidneys at 24 h", "setting": "[5]; [9]", "result": "1.0% of injected actinide"},
      {"measurement": "body weight", "setting": "[6]; [10]", "result": "102 ± 1", "unit": "percent control"},
      {"measurement": "plasma urea N", "setting": "[6]; [10]", "result": "112 ± 10", "unit": "percent control"},
      {"measurement": "no. of survivors", "setting": "[6]; protocol I: 100 μmol/kg × 10 daily i.p., 11 d, of 5 mice", "result": 5},
      {"measurement": "body weight", "setting": "[6]; [11]", "result": "106 ± 4", "unit": "percent control"},
      {"measurement": "plasma urea N", "setting": "[6]; [11]", "result": "120 ± 9", "unit": "percent control"},
      {"measurement": "no. of survivors", "setting": "[6]; protocol I: 100 μmol/kg × 10 daily i.p., 21 d, of 5 mice", "result": 5},
      {"measurement": "body weight", "setting": "[6]; [12]", "result": "101 ± 4", "unit": "percent control"},
      {"measurement": "plasma urea N", "setting": "[6]; [12]", "result": "119 ± 15", "unit": "percent control"},
      {"measurement": "no. of survivors", "setting": "[6]; protocol II: 500 μmol/kg × 2 in 8 h i.p., 8 d, of 19 (TREN) or 10 (H(2,2)) mice", "result": 19},
      {"measurement": "reduction of U content (in words)", "setting": "[7]; 30 μmol/kg i.p.", "result": "reduced the body content of all three actinides to a significantly greater degree than CaNa3 -DTPA; also recorded: more than one-half of the U burden in the kidneys was removed"},
      {"measurement": "U(VI) in kidneys at 24 h", "setting": "[7]; [8]", "result": "1.6 ± 0.3% of injected actinide"},
      {"measurement": "U(VI) in liver at 24 h", "setting": "[7]; [8]", "result": "0.6 ± 0.3% of injected actinide"},
      {"measurement": "U(VI) in skeleton at 24 h", "setting": "[7]; [8]", "result": "16 ± 2.4% of injected actinide"},
      {"measurement": "U(VI) in soft tissue at 24 h", "setting": "[7]; [8]", "result": "1.6 ± 0.3% of injected actinide"},
      {"measurement": "U(VI) in whole body at 24 h", "setting": "[7]; [8]", "result": "9.4 ± 6.0% of injected actinide"},
      {"measurement": "U(VI) excreta: feces and GI contents", "setting": "[7]; [9]", "result": "2.3% of injected actinide"},
      {"measurement": "U(VI) excreta: urine 0-24 h", "setting": "[7]; [9]", "result": "70% of injected actinide"}
    ]}
  ]
}
